Among the data in patent US9234186B2, “Star-worm luciferase” (OLYMPUS CORPORATION, priority 2011, dated 2016) are Km values, retold here.

The experiment addresses GL3 luciferase derived from P. pyralis (Photinus pyralis, UniProt P08659, K549A/L550V/N119G/N50D/S548I). Format: biochemical. The conditions noted are these: read-out: Km for ATP; 0.1 M Tris-HCl pH 8.0; enzyme solution with 1 mM D-luciferin, 8 mM MgSO4.

Sequence of GL3 luciferase derived from P. pyralis (P08659 whole entry N50D/N119G/S548I/K549A/L550V): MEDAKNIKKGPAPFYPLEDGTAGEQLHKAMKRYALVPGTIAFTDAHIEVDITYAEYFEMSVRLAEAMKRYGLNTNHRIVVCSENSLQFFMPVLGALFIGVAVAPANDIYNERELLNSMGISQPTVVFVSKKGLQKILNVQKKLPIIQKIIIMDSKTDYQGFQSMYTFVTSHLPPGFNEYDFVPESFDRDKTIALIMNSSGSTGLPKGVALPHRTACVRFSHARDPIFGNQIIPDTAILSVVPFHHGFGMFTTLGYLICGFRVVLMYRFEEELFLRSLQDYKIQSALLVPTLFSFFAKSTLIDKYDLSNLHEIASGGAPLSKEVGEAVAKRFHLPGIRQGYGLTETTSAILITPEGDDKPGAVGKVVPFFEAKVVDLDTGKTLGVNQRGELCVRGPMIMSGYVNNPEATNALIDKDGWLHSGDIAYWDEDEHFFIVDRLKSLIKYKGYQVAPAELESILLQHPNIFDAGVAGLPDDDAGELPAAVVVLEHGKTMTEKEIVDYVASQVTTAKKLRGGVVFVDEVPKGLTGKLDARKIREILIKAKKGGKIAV

Regarding `Nc1ncnc2c1ncn2[C@@H]1O[C@H](COP(=O)(O)OP(=O)(O)OP(=O)(O)O)[C@@H](O)[C@H]1O` [ATP, Adenosine triphosphate], the Km (as a rule, the concentration of substrate that gives half-maximal velocity) came to 64.3 µM.
